Values after ≈ are worked out from the molar mass of the structure shown.
Experiments:
Assay type in all cases: functional
Sporothrix schenckii [1] = assay: Antifungal activity against Sporothrix schenckii PGAC0016 isolate from cutaneous-lymphatic sporotrichosis patient after 72 hrs by ATB Fungus 2 method
Sporothrix schenckii [2] = assay: Antifungal activity against Sporothrix schenckii P26187 isolate from cutaneous-lymphatic sporotrichosis patient after 72 hrs by modified NCCLS M38-A method
Sporothrix schenckii [3] = assay: Antifungal activity against Sporothrix schenckii P30019 isolate from cutaneous-lymphatic sporotrichosis patient after 72 hrs by Sensititre YeastOne method
Sporothrix schenckii [4] = assay: Antifungal activity against Sporothrix schenckii P25013 isolate from cutaneous-lymphatic sporotrichosis patient after 72 hrs by ATB Fungus 2 method
Sporothrix schenckii [5] = assay: Antifungal activity against Sporothrix schenckii PGAC0016 isolate from cutaneous-lymphatic sporotrichosis patient after 72 hrs by Sensititre YeastOne method
Sporothrix schenckii [6] = assay: Antifungal activity against Sporothrix schenckii P24223 isolate from cutaneous-lymphatic sporotrichosis patient after 72 hrs by Sensititre YeastOne method
Sporothrix schenckii [7] = assay: Antifungal activity against Sporothrix schenckii SSA29 isolate from cutaneous-lymphatic sporotrichosis patient after 72 hrs by modified NCCLS M38-A method
Sporothrix schenckii [8] = assay: Antifungal activity against Sporothrix schenckii P30915 isolate from cutaneous-lymphatic sporotrichosis patient after 72 hrs by Sensititre YeastOne method
Sporothrix schenckii [9] = assay: Antifungal activity against Sporothrix schenckii P1621 isolate from cutaneous-lymphatic sporotrichosis patient after 72 hrs by Sensititre YeastOne method
Sporothrix schenckii [10] = assay: Antifungal activity against Sporothrix schenckii PSCC1 isolate from cutaneous-lymphatic sporotrichosis patient after 72 hrs by modified NCCLS M38-A method
Sporothrix schenckii [11] = assay: Antifungal activity against Sporothrix schenckii isolate from cutaneous-lymphatic sporotrichosis patient after 72 hrs by modified NCCLS M38-A method
Sporothrix schenckii [12] = assay: Antifungal activity against Sporothrix schenckii P24223 isolate from cutaneous-lymphatic sporotrichosis patient after 72 hrs by modified NCCLS M38-A method
Sporothrix schenckii [13] = assay: Antifungal activity against Sporothrix schenckii P3287 isolate from cutaneous-lymphatic sporotrichosis patient after 72 hrs by modified NCCLS M38-A method
Sporothrix schenckii [14] = assay: Antifungal activity against Sporothrix schenckii P30915 isolate from cutaneous-lymphatic sporotrichosis patient after 72 hrs by ATB Fungus 2 method
Sporothrix schenckii [15] = assay: Antifungal activity against Sporothrix schenckii PGAC0016 isolate from cutaneous-lymphatic sporotrichosis patient after 72 hrs by modified NCCLS M38-A method
Sporothrix schenckii [16] = assay: Antifungal activity against Sporothrix schenckii P1621 isolate from cutaneous-lymphatic sporotrichosis patient after 72 hrs by modified NCCLS M38-A method
Sporothrix schenckii [17] = assay: Antifungal activity against Sporothrix schenckii PSCC1 isolate from cutaneous-lymphatic sporotrichosis patient after 72 hrs by Sensititre YeastOne method
Sporothrix schenckii [18] = assay: Antifungal activity against Sporothrix schenckii P25013 isolate from cutaneous-lymphatic sporotrichosis patient after 72 hrs by Sensititre YeastOne method
Sporothrix schenckii [19] = assay: Antifungal activity against Sporothrix schenckii P14036 isolate from cutaneous-lymphatic sporotrichosis patient after 72 hrs by modified NCCLS M38-A method
Sporothrix schenckii [20] = assay: Antifungal activity against Sporothrix schenckii MRSS4 isolate from cutaneous-lymphatic sporotrichosis patient after 72 hrs by modified NCCLS M38-A method
Sporothrix schenckii [21] = assay: Antifungal activity against Sporothrix schenckii P14954 isolate from cutaneous-lymphatic sporotrichosis patient after 72 hrs by modified NCCLS M38-A method
Sporothrix schenckii [22] = assay: Antifungal activity against Sporothrix schenckii P20825 isolate from cutaneous-lymphatic sporotrichosis patient after 72 hrs by ATB Fungus 2 method
Sporothrix schenckii [23] = assay: Antifungal activity against Sporothrix schenckii PSCC1 isolate from cutaneous-lymphatic sporotrichosis patient after 72 hrs by ATB Fungus 2 method
Sporothrix schenckii [24] = assay: Antifungal activity against Sporothrix schenckii PJRC002 isolate from cutaneous-lymphatic sporotrichosis patient after 72 hrs by ATB Fungus 2 method
Sporothrix schenckii [25] = assay: Antifungal activity against Sporothrix schenckii P24223 isolate from cutaneous-lymphatic sporotrichosis patient after 72 hrs by ATB Fungus 2 method
Sporothrix schenckii [26] = assay: Antifungal activity against Sporothrix schenckii P30019 isolate from cutaneous-lymphatic sporotrichosis patient after 72 hrs by modified NCCLS M38-A method
Sporothrix schenckii [27] = assay: Antifungal activity against Sporothrix schenckii P10012 isolate from cutaneous-lymphatic sporotrichosis patient after 72 hrs by modified NCCLS M38-A method
Sporothrix schenckii [28] = assay: Antifungal activity against Sporothrix schenckii SSA29 isolate from cutaneous-lymphatic sporotrichosis patient after 72 hrs by ATB Fungus 2 method
Sporothrix schenckii [29] = assay: Antifungal activity against Sporothrix schenckii P0019 isolate from cutaneous-lymphatic sporotrichosis patient after 72 hrs by Sensititre YeastOne method
Sporothrix schenckii [30] = assay: Antifungal activity against Sporothrix schenckii MRSS4 isolate from cutaneous-lymphatic sporotrichosis patient after 72 hrs by Sensititre YeastOne method
Sporothrix schenckii [31] = assay: Antifungal activity against Sporothrix schenckii isolate from cutaneous-lymphatic sporotrichosis patient after 72 hrs by Sensititre YeastOne method
Sporothrix schenckii [32] = assay: Antifungal activity against Sporothrix schenckii PSSA81 isolate from cutaneous-lymphatic sporotrichosis patient after 72 hrs by Sensititre YeastOne method
Sporothrix schenckii [33] = assay: Antifungal activity against Sporothrix schenckii P30915 isolate from cutaneous-lymphatic sporotrichosis patient after 72 hrs by modified NCCLS M38-A method
Sporothrix schenckii [34] = assay: Antifungal activity against Sporothrix schenckii MRSS4 isolate from cutaneous-lymphatic sporotrichosis patient after 72 hrs by ATB Fungus 2 method
Sporothrix schenckii [35] = assay: Antifungal activity against Sporothrix schenckii P24255 isolate from cutaneous-lymphatic sporotrichosis patient after 72 hrs by modified NCCLS M38-A method
Sporothrix schenckii [36] = assay: Antifungal activity against Sporothrix schenckii P30019 isolate from cutaneous-lymphatic sporotrichosis patient after 72 hrs by ATB Fungus 2 method
Sporothrix schenckii [37] = assay: Antifungal activity against Sporothrix schenckii P26187 isolate from cutaneous-lymphatic sporotrichosis patient after 72 hrs by Sensititre YeastOne method
Sporothrix schenckii [38] = assay: Antifungal activity against Sporothrix schenckii P26187 isolate from cutaneous-lymphatic sporotrichosis patient after 72 hrs by ATB Fungus 2 method
Sporothrix schenckii [39] = assay: Antifungal activity against Sporothrix schenckii P1621 isolate from cutaneous-lymphatic sporotrichosis patient after 72 hrs by ATB Fungus 2 method
Pichia kudriavzevii = assay: Antifungal activity against Candida krusei ATCC 6258 […] after 72 hrs by ATB Fungus 2 method; conditions: ATCC 6258, 72 h
Sporothrix schenckii [40] = assay: Antifungal activity against Sporothrix schenckii PJRC002 isolate from cutaneous-lymphatic sporotrichosis patient after 72 hrs by Sensititre YeastOne method
Sporothrix schenckii [41] = assay: Antifungal activity against Sporothrix schenckii P0019 isolate from cutaneous-lymphatic sporotrichosis patient after 72 hrs by ATB Fungus 2 method
Candida parapsilosis = assay: Antifungal activity against Candida parapsilosis ATCC 22019 […] after 72 hrs by modified NCCLS M38-A method; conditions: Lodderomyces parapsilosis, ATCC 22019, 72 h
Sporothrix schenckii [42] = assay: Antifungal activity against Sporothrix schenckii PSSA81 isolate from cutaneous-lymphatic sporotrichosis patient after 72 hrs by ATB Fungus 2 method
Sporothrix schenckii [43] = assay: Antifungal activity against Sporothrix schenckii PSSA81 isolate from cutaneous-lymphatic sporotrichosis patient after 72 hrs by modified NCCLS M38-A method

Work on OC(Cn1cncn1)(Cn1cncn1)c1ccc(F)cc1F [FLUCONAZOLE] yielded an MIC (Sporothrix schenckii [1]) greater than 128 µg/mL, an MIC (Sporothrix schenckii [2]) greater than 64 µg/mL and an MIC (Sporothrix schenckii [3]) greater than 128 µg/mL. For the same molecule, the MIC (Sporothrix schenckii [4]) was greater than 128 µg/mL, the MIC (Sporothrix schenckii [5]) was greater than 256 µg/mL and the MIC (Sporothrix schenckii [6]) was greater than 256 µg/mL. It also gave an MIC (Sporothrix schenckii [7]) greater than 64 µg/mL, an MIC (Sporothrix schenckii [8]) greater than 256 µg/mL and an MIC (Sporothrix schenckii [9]) greater than 256 µg/mL. It also gave an MIC (Sporothrix schenckii [10]) greater than 64 µg/mL, an MIC50 (Sporothrix schenckii [11]) greater than 64 µg/mL and an MIC90 (Sporothrix schenckii [11]) greater than 64 µg/mL. For the same molecule, the MIC (Sporothrix schenckii [12]) was greater than 64 µg/mL, the MIC (Sporothrix schenckii [13]) was greater than 64 µg/mL and the MIC (Sporothrix schenckii [14]) was greater than 128 µg/mL. The MIC (Sporothrix schenckii [15]) was greater than 64 µg/mL, the MIC (Sporothrix schenckii [16]) was greater than 64 µg/mL and the MIC (Sporothrix schenckii [17]) was greater than 256 µg/mL. The MIC (Sporothrix schenckii [18]) was 128 µg/mL (≈ 418 µM), the MIC (Sporothrix schenckii [19]) was greater than 128 µg/mL and the MIC (Sporothrix schenckii [20]) was greater than 64 µg/mL. It also gave an MIC (Sporothrix schenckii [21]) greater than 64 µg/mL, an MIC (Sporothrix schenckii [22]) greater than 128 µg/mL and an MIC (Sporothrix schenckii [23]) greater than 128 µg/mL. For the same molecule, the MIC (Sporothrix schenckii [24]) was greater than 256 µg/mL, the MIC (Sporothrix schenckii [25]) was greater than 128 µg/mL and the MIC (Sporothrix schenckii [26]) was greater than 64 µg/mL. The MIC (Sporothrix schenckii [27]) was greater than 64 µg/mL, the MIC (Sporothrix schenckii [28]) was greater than 128 µg/mL and the MIC (Sporothrix schenckii [29]) was greater than 256 µg/mL. It also gave an MIC (Sporothrix schenckii [30]) greater than 256 µg/mL, an MIC50 (Sporothrix schenckii [31]) greater than 256 µg/mL and an MIC90 (Sporothrix schenckii [31]) greater than 256 µg/mL. For the same molecule, the MIC (Sporothrix schenckii [32]) was 128 µg/mL (≈ 418 µM), the MIC (Sporothrix schenckii [33]) was greater than 64 µg/mL and the MIC (Sporothrix schenckii [34]) was greater than 128 µg/mL. For the same molecule, the MIC (Sporothrix schenckii [35]) was greater than 64 µg/mL, the MIC (Sporothrix schenckii [36]) was greater than 128 µg/mL and the MIC (Sporothrix schenckii [37]) was 128 µg/mL (≈ 418 µM). For the same molecule, the MIC (Sporothrix schenckii [38]) was greater than 128 µg/mL, the MIC (Sporothrix schenckii [39]) was greater than 128 µg/mL and the MIC (Pichia kudriavzevii) was 32 µg/mL (≈ 104 µM). The MIC (Sporothrix schenckii [40]) was greater than 256 µg/mL, the MIC (Sporothrix schenckii [41]) was greater than 128 µg/mL and the MIC (Candida parapsilosis) was 1 µg/mL (≈ 3.27 µM). For the same molecule, the MIC (Sporothrix schenckii [42]) was greater than 128 µg/mL and the MIC (Sporothrix schenckii [43]) was greater than 64 µg/mL.
Work on CCC(C)n1ncn(-c2ccc(N3CCN(c4ccc(OCC5COC(Cn6cncn6)(c6ccc(Cl)cc6Cl)O5)cc4)CC3)cc2)c1=O (centres undefined) [ITRACONAZOLE] yielded an MIC (Sporothrix schenckii [1]) of 2 µg/mL (≈ 2.83 µM), an MIC (Sporothrix schenckii [2]) of 0.5 µg/mL (≈ 0.709 µM) and an MIC (Sporothrix schenckii [3]) of 0.25 µg/mL (≈ 0.354 µM). It also gave an MIC (Sporothrix schenckii [4]) of 1 µg/mL (≈ 1.42 µM), an MIC (Sporothrix schenckii [5]) of 0.13 µg/mL (≈ 0.184 µM) and an MIC (Sporothrix schenckii [6]) of 0.5 µg/mL (≈ 0.709 µM). The MIC (Sporothrix schenckii [7]) was 0.5 µg/mL (≈ 0.709 µM), the MIC (Sporothrix schenckii [8]) was 0.5 µg/mL (≈ 0.709 µM) and the MIC (Sporothrix schenckii [9]) was 0.25 µg/mL (≈ 0.354 µM). For the same molecule, the MIC (Sporothrix schenckii [10]) was 0.25 µg/mL (≈ 0.354 µM), the MIC50 (Sporothrix schenckii [11]) was 0.5 µg/mL (≈ 0.709 µM) and the MIC90 (Sporothrix schenckii [11]) was 0.5 µg/mL (≈ 0.709 µM). For the same molecule, the MIC (Sporothrix schenckii [12]) was 8 µg/mL (≈ 11.3 µM), the MIC (Sporothrix schenckii [13]) was 0.25 µg/mL (≈ 0.354 µM) and the MIC (Sporothrix schenckii [14]) was 2 µg/mL (≈ 2.83 µM). It also gave an MIC (Sporothrix schenckii [15]) of 0.5 µg/mL (≈ 0.709 µM), an MIC (Sporothrix schenckii [16]) of 1 µg/mL (≈ 1.42 µM) and an MIC (Sporothrix schenckii [17]) of 0.25 µg/mL (≈ 0.354 µM). For the same molecule, the MIC (Sporothrix schenckii [18]) was 0.25 µg/mL (≈ 0.354 µM), the MIC (Sporothrix schenckii [19]) was 0.5 µg/mL (≈ 0.709 µM) and the MIC (Sporothrix schenckii [20]) was 0.5 µg/mL (≈ 0.709 µM). It also gave an MIC (Sporothrix schenckii [21]) of 0.5 µg/mL (≈ 0.709 µM), an MIC (Sporothrix schenckii [22]) of 1 µg/mL (≈ 1.42 µM) and an MIC (Sporothrix schenckii [23]) of 1 µg/mL (≈ 1.42 µM). It also gave an MIC (Sporothrix schenckii [24]) of 1 µg/mL (≈ 1.42 µM), an MIC (Sporothrix schenckii [25]) of 2 µg/mL (≈ 2.83 µM) and an MIC (Sporothrix schenckii [26]) of 0.5 µg/mL (≈ 0.709 µM). The MIC (Sporothrix schenckii [27]) was 0.5 µg/mL (≈ 0.709 µM), the MIC (Sporothrix schenckii [28]) was 0.5 µg/mL (≈ 0.709 µM) and the MIC (Sporothrix schenckii [29]) was 0.13 µg/mL (≈ 0.184 µM). For the same molecule, the MIC (Sporothrix schenckii [30]) was 0.25 µg/mL (≈ 0.354 µM), the MIC50 (Sporothrix schenckii [31]) was 0.25 µg/mL (≈ 0.354 µM) and the MIC90 (Sporothrix schenckii [31]) was 0.25 µg/mL (≈ 0.354 µM). It also gave an MIC (Sporothrix schenckii [32]) of 0.06 µg/mL (≈ 0.085 µM), an MIC (Sporothrix schenckii [33]) of 0.5 µg/mL (≈ 0.709 µM) and an MIC (Sporothrix schenckii [34]) of 2 µg/mL (≈ 2.83 µM). For the same molecule, the MIC (Sporothrix schenckii [35]) was 0.5 µg/mL (≈ 0.709 µM), the MIC (Sporothrix schenckii [36]) was 1 µg/mL (≈ 1.42 µM) and the MIC (Sporothrix schenckii [37]) was 0.13 µg/mL (≈ 0.184 µM). The MIC (Sporothrix schenckii [38]) was 2 µg/mL (≈ 2.83 µM), the MIC (Sporothrix schenckii [39]) was 2 µg/mL (≈ 2.83 µM) and the MIC (Pichia kudriavzevii) was 0.5 µg/mL (≈ 0.709 µM). The MIC (Sporothrix schenckii [40]) was 0.13 µg/mL (≈ 0.184 µM), the MIC (Sporothrix schenckii [41]) was 2 µg/mL (≈ 2.83 µM) and the MIC (Candida parapsilosis) was 0.5 µg/mL (≈ 0.709 µM). The MIC (Sporothrix schenckii [42]) was 1 µg/mL (≈ 1.42 µM) and the MIC (Sporothrix schenckii [43]) was 0.5 µg/mL (≈ 0.709 µM).
